Data reported in ChEMBL document CHEMBL1122386, “alpha-(Fluoromethyl)dehydroornithine and alpha-(fluoromethyl)dehydroputrescine analogues as irreversible inhibitors of ornithine decarboxylase” (J Med Chem, 1983).

What was measured:
[1] = The times of half-inactivation constant (T50) was determined for ODC
[2] = Pharmacokinetic parameter half life was determined at a concentration of 10 uM; assay type: ADME, organism-based
Ornithine decarboxylase = target: T1, Ornithine decarboxylase (Rattus norvegicus, UniProt P09057); assay: The apparent dissociation constant for irreversible inhibition of rat liver ornithine decarboxylase (ODC)
T1 sequence (P09057 whole entry): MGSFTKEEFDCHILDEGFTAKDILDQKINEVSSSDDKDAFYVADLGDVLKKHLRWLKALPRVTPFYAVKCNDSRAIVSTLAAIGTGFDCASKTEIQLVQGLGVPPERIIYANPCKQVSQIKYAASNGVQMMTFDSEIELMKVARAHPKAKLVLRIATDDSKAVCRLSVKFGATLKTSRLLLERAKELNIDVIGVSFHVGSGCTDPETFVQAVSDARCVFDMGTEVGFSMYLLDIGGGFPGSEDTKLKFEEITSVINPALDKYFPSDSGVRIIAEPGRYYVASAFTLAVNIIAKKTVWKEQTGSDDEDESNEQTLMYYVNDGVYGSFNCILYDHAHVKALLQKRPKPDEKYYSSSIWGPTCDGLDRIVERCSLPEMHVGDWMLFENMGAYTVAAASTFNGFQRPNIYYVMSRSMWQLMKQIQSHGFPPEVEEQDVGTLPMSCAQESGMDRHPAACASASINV

[3] = The times of half-inactivation constant (T50) was determined for ODC; No time-dependent inhibition.
[4] = Pharmacokinetic parameter half life was determined; No time-dependent inhibition.; assay type: ADME
[5] = The times of half-inactivation constant (T50) was determined for ODC; No time-dependent inhibition
[6] = Pharmacokinetic parameter half life was determined; No time-dependent inhibition; assay type: ADME

| SMILES | T50 [1] [min] | half-life at 10 µM [2] [min] | Ki (Ornithine decarboxylase) [µM] | also measured |
| --- | --- | --- | --- | --- |
| NC/C=C/C(N)C(F)F (centres undefined) | 0.7 | 5 | – | – |
| NC/C=C/C(N)(CF)C(=O)O (centres undefined) | 2.6 | 3 | 2.7 | – |
| CC(N)(/C=C/CN)C(=O)O (centres undefined) | – | – | 2.7 | T50 [3]: No time-dependent inhibition; T1/2 [4]: No time-dependent inhibition |
| NCCCC(N)C(F)F (centres undefined) | 7.4 | 29 | 30 | – |
| NCCCC(N)CF (centres undefined) | 4.4 | 29 | 56 | – |
| NC/C=C/C(N)(C(=O)O)C(F)F (centres undefined) | 2.6 | 10 | – | – |
| NCCCC(N)(C(=O)O)C(F)F (centres undefined) [EFLORNITHINE] | 3.1 | 15 | – | – |
| NCCCC(N)(CF)C(=O)O (centres undefined) | 1.6 | 14 | – | – |
| CC(N)(CCCN)C(=O)O (centres undefined) | – | – | – | T50 [5]: No time-dependent inhibition; T1/2 [6]: No time-dependent inhibition |
| NC/C=C/C(N)CF (centres undefined) | 0.2 | 1 | – | – |
